{"source": "paper PMC2045673", "about": "“Site-specific acetylation of ISWI by GCN5” (BMC Molecular Biology, 2007)", "assay_in_all_cases": "radiometric HAT assay, SDS-PAGE autoradiography", "format_in_all_cases": "biochemical", "key": {"MOF (HA-MOF)": {"target": "T1, MOF (HA-MOF) (Drosophila melanogaster, UniProt O02193)", "T1 construct": "HA-tagged recombinant MOF", "T1 sequence (O02193 1-827)": "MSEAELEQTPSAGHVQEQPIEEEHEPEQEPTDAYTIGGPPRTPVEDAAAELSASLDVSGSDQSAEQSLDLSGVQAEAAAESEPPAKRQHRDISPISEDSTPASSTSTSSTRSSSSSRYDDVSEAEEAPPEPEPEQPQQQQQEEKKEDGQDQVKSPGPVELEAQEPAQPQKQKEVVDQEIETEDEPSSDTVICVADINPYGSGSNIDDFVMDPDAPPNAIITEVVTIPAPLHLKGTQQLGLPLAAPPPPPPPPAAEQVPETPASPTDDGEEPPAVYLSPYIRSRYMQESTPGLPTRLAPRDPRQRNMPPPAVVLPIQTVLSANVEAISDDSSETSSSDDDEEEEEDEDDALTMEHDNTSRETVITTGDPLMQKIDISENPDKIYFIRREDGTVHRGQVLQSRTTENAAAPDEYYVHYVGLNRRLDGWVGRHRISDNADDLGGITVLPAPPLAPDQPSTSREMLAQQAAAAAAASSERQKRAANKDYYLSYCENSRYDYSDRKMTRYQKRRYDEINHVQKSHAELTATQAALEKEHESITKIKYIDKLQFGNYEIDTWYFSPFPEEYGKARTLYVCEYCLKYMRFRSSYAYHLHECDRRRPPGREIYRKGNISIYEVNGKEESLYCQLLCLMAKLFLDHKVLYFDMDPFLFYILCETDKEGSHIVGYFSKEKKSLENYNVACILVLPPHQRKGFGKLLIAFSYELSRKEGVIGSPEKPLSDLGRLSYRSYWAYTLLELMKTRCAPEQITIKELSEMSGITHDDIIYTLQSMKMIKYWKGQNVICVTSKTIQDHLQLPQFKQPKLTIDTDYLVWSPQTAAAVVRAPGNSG", "conditions": "labelled compound; co-substrate histones; pH 7.8, 26 °C"}, "GCN5 (GST-hGCN5)": {"target": "T2, GCN5 (GST-hGCN5) (Homo sapiens, UniProt Q92830)", "T2 construct": "gene KAT2A; GST-tagged, recombinant from E. coli", "T2 sequence (Q92830 whole entry)": "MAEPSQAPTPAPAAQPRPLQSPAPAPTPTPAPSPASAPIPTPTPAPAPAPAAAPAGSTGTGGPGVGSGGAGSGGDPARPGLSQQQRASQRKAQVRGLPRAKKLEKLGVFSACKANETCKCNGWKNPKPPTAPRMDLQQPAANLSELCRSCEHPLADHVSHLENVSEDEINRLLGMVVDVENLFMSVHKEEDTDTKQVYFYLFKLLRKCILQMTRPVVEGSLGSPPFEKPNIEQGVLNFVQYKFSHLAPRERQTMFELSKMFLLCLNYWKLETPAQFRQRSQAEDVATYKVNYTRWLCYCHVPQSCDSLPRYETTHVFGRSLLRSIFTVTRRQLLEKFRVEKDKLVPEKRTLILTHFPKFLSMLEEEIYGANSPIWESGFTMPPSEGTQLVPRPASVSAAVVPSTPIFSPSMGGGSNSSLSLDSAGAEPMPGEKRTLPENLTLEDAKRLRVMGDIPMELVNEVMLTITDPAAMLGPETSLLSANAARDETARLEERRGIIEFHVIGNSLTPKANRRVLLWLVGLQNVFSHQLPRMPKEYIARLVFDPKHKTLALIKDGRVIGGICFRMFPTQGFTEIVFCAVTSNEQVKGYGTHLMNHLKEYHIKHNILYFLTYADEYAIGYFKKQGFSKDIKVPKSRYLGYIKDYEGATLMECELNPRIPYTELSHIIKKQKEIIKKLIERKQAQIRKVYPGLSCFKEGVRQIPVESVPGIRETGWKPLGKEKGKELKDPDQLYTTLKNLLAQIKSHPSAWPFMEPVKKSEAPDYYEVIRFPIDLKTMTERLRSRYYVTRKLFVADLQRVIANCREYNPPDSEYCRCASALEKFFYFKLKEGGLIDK", "conditions": "labelled compound; co-substrate histones, ISWI or peptide; pH 7.8, 26 °C"}, "p300 (FLAG-p300)": {"target": "T3, p300 (FLAG-p300) (Homo sapiens, UniProt Q09472)", "T3 construct": "gene EP300; FLAG-tagged recombinant p300", "T3 sequence (Q09472 2-2414)": "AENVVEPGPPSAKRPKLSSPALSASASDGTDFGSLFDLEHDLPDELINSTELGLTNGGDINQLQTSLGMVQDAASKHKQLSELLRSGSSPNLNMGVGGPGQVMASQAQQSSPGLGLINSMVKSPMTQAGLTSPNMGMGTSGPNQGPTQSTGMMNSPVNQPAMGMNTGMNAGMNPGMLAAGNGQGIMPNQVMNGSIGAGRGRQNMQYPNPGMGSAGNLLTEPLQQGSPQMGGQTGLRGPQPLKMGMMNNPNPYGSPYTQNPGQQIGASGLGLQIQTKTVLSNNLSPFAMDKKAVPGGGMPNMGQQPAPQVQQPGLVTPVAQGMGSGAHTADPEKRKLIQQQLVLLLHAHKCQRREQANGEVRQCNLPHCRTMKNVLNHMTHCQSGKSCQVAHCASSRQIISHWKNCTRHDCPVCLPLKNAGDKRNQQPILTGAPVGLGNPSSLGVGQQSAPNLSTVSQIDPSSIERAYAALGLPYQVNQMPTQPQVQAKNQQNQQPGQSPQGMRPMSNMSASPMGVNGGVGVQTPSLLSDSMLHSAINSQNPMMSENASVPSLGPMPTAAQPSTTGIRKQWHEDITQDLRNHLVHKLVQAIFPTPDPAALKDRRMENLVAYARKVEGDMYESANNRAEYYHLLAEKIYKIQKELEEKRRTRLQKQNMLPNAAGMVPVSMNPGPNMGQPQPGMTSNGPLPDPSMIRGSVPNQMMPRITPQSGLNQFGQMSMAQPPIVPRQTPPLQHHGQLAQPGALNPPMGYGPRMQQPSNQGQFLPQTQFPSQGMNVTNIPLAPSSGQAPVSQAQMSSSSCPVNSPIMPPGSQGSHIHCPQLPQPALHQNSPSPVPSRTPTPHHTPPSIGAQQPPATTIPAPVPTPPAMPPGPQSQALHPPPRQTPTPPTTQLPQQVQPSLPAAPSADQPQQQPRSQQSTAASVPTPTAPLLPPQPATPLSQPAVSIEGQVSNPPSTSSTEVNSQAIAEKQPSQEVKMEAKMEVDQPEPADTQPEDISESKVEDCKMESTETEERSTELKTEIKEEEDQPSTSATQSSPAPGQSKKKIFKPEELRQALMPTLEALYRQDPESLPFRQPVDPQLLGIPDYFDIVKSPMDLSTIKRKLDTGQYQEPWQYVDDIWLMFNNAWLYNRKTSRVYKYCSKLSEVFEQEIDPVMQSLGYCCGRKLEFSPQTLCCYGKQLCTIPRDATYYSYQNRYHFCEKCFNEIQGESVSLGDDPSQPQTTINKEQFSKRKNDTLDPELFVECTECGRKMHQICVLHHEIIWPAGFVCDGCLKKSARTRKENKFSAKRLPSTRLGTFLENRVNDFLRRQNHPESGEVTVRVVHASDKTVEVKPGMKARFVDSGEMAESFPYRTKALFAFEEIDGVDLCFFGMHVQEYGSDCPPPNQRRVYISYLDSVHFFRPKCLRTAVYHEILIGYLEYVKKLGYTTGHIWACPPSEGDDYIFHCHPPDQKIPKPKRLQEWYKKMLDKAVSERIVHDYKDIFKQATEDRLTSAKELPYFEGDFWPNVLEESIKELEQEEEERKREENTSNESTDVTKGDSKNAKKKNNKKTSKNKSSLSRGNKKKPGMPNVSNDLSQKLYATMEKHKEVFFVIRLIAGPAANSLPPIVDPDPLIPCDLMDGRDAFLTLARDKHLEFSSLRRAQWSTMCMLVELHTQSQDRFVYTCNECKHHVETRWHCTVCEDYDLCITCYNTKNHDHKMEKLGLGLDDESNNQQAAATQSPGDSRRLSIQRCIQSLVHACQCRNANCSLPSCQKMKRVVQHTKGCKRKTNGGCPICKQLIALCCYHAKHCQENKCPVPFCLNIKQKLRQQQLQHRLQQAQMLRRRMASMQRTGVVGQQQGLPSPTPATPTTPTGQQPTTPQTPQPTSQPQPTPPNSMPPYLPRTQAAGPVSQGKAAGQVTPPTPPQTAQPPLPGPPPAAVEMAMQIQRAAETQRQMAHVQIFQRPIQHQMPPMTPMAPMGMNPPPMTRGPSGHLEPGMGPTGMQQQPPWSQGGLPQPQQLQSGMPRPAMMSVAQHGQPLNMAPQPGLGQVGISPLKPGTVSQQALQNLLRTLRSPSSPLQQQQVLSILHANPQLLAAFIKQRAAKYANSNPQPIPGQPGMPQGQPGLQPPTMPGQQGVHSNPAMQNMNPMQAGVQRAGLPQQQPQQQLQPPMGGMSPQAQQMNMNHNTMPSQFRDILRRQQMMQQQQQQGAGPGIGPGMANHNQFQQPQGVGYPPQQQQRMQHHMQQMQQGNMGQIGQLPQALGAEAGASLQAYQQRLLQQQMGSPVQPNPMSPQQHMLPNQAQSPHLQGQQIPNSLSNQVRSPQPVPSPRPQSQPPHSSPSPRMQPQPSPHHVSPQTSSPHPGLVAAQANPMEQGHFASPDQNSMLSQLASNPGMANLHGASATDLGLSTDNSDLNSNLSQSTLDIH", "conditions": "labelled compound; co-substrate histones, ISWI or peptide; pH 7.8, 26 °C"}}}
{"compound": "CC(=O)SCCNC(=O)CCNC(=O)[C@H](O)C(C)(C)COP(=O)(O)OP(=O)(O)OC[C@H]1O[C@@H](n2cnc3c(N)ncnc32)[C@H](O)[C@@H]1OP(=O)(O)O", "note": "[acetyl-CoA]", "values": [{"measurement": "radiometric HAT assay, SDS-PAGE autoradiography", "setting": "MOF (HA-MOF)", "result": "The histone acetyltransferase activities of recombinant GCN5, p300 and MOF were assayed"}, {"measurement": "radiometric HAT assay, SDS-PAGE autoradiography", "setting": "GCN5 (GST-hGCN5)", "result": "The histone acetyltransferase activities of recombinant GCN5, p300 and MOF were assayed"}, {"measurement": "radiometric HAT assay, SDS-PAGE autoradiography", "setting": "p300 (FLAG-p300)", "result": "The histone acetyltransferase activities of recombinant GCN5, p300 and MOF were assayed"}]}
